From patent US10780101B2, “Amide derivatives of squalamine for the treatment of infections” (VIRBAC, priority 2016, dated 2020)
≈ marks a conversion by molar mass, not a printed value. Where two headings read alike, the source gives them in different places.

Columns and labels:
P. aeruginosa (1051575) [1] = assay: Potentiation of erythromycin activity (combination MIC); type: cell-based, Pseudomonas aeruginosa; settings: erythromycin 2 μg/mL; concentration of compound required to restore antibiotic activity
Experimental: (§1) This method requires the use of a 96-well plate: 100 μL of a liquid culture medium are placed in each well and then seeded with the microbial suspension prepared previously. The required volume to be seeded is calculated for an OD of 0.01, which corresponds to about 5×10^6 bacteria in each well. In this plate, the first line corresponds to a negative control (200 μL of sterile culture medium in each well), the second line corresponds to a positive control (100 μL of sterile culture medium+100 μL of the bacterial suspension), and the third line contains 192 μL of culture medium; 8 μL of compound of formula (I) to be tested are placed in each well. Thereafter, a cascade dilution is performed from this line. L of a doxycycline solution (1 mg dissolved in 20 mL) are then added to each well of lines 3 to 8 to obtain a final antibiotic concentration of 2 μg/mL. 92 μL of bacterial suspension are then added to lines 3 to 8. The results are read (the determination of the MIC (2 μg/mL of doxycycline) in the presence of X g/mL of compound of formula (I)) after 24 hours of incubation at 37° C. under a humid atmosphere. After 24 hours of incubation at 37° C., 40 μL of nitro tetrazolium iodide are added to each well to reveal the presence of live bacteria by staining the medium pink.
The procedure is identical to that indicated in Example 5 above. 8 μL of an antibiotic solution under consideration (1 mg dissolved in 20 mL) are added to obtain a final antibiotic concentration of 2 μg/mL instead of 8 μL of a doxycycline solution.
(§2) The results are given in table V. They indicate the concentration of compound of formula (I) required to be able to restore the activity of the antibiotic under consideration.

[2] = system: S. aureus Human ATCC 25923; assay: MIC determination, S. aureus human ATCC 25923; type: cell-based; settings: Staphylococcus aureus, ATCC25923; Gram-positive; Mueller-Hinton medium, 24 h at 37° C.
Summary of the method: (§3)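 Broth microdilution in Mueller-Hinton medium; compounds from 5 mg/mL stock in DMSO/methanol (50/50), twofold serial dilutions, inoculum adjusted to OD 0.01. Plates incubated 24 h at 37 °C, humid atmosphere; OD read at 620 nm to derive MIC, duplicates.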

P. aeruginosa (1051575) [3] = assay: Potentiation of doxycycline activity (combination MIC); type: cell-based, Pseudomonas aeruginosa; settings: in presence of doxycycline 2 μg/mL; 24 hours at 37° C.
E. coli Human ATCC 28922 = assay: MIC determination, E. coli human ATCC 28922; type: cell-based; settings: Escherichia coli, ATCC28922; Gram-negative; Mueller-Hinton medium, 24 h at 37° C.
Summary of the method: as §3

[4] = system: S. intermedius Animal (1051997); assay: MIC determination, S. intermedius animal (1051997); type: cell-based; settings: Staphylococcus intermedius; Gram-positive; Mueller-Hinton medium, 24 h at 37° C.
Summary of the method: as §3

P. aeruginosa (1051575) [5] = assay: Potentiation of chloramphenicol activity (combination MIC); type: cell-based, Pseudomonas aeruginosa; settings: chloramphenicol 2 μg/mL; concentration of compound required to restore antibiotic activity
Experimental: as §1, with “L of a doxycycline solution (1 mg dissolved in 20 mL) are then added to each well of lines 3 to 8 to obtain a final antibiotic concentration of 2 μg/mL.” left out
The procedure is identical to that indicated in Example 5 above. […]
as §2

[6] = system: P. aeruginosa Human ATCC 27853; assay: MIC determination, P. aeruginosa human ATCC 27853; type: cell-based; settings: Pseudomonas aeruginosa, ATCC27853; Gram-negative; Mueller-Hinton medium, 24 h at 37° C.
Summary of the method: as §3

S. aureus Animal (340) = assay: MIC determination, S. aureus animal (340); type: cell-based; settings: Staphylococcus aureus; Gram-positive; Mueller-Hinton medium, 24 h at 37° C.
Summary of the method: as §3

CHO-K1 cells = assay: WST1 cytotoxicity test on CHO-K1 cells; type: cell-based, Chinese hamster; settings: Cricetulus griseus
Summary of the method: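 CHO-K1 cells pre-grown 24 h, then exposed to increasing compound concentrations in duplicate for 24 h at 37° C, 5% CO2. Viability read after 20 min with 10% WST-1 in PBS at 450 nm; IC50 from nonlinear regression as concentration cutting viability 50%.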

[7] = system: P. aeruginosa Animal (1051575); assay: MIC determination, P. aeruginosa animal (1051575); type: cell-based; settings: Pseudomonas aeruginosa; Gram-negative; Mueller-Hinton medium, 24 h at 37° C.
Summary of the method: as §3

C. albicans = assay: Antifungal activity, cascade microdilution; type: cell-based; settings: Candida albicans, 24 h, read-out: IC50 (μg/mL) C. albicans
E. coli Animal (1956) = assay: MIC determination, E. coli animal (1956); type: cell-based; settings: Escherichia coli; Gram-negative; Mueller-Hinton medium, 24 h at 37° C.
Summary of the method: as §3

[8] = system: E. faecalis Human ATCC 29212; assay: MIC determination, E. faecalis human ATCC 29212; type: cell-based; settings: Enterococcus faecalis, ATCC29212; Gram-positive; Mueller-Hinton medium, 24 h at 37° C.
Summary of the method: as §3

P. aeruginosa (PAO1) = assay: MIC of doxycycline alone on PAO1; type: cell-based; settings: Pseudomonas aeruginosa, Gram-negative strain P. aeruginosa (PAO1)
Experimental: On the Gram-negative strain of P. aeruginosa (PAO1), doxycycline has an MIC of 40 μg/mL.

[9] = CHO-K1, 24 h, read-out: IC50 (μg/mL) CHO
[10] = CHO-K1, read-out: IC50 (μg/mL) CHO

MIC (P. aeruginosa (PAO1)) | Structure (SMILES) | MIC P. aeruginosa (1051575) compound + erythromycin (P. aeruginosa (1051575) [1]) | MIC [2] | MIC - P. aeruginosa (1051575): content of compound of formula (I) to restore the doxycycline activity (at 2 μg/mL) (P. aeruginosa (1051575) [3]) | MIC (E. coli Human ATCC 28922) | MIC [4] | MIC P. aeruginosa (1051575) compound + chloramphenicol (P. aeruginosa (1051575) [5]) | MIC [6] | MIC (S. aureus Animal (340)) | IC50 (CHO-K1 cells; [9]) | IC50 (CHO-K1 cells; [10]) | MIC [7] | IC50 (C. albicans) | MIC (E. coli Animal (1956)) | MIC [8]
 | CCN(CC)C(=O)CC[C@@H](C)[C@H]1CCC2C3C(CC[C@@]21C)[C@@]1(C)CC[C@H](NCCCN(CCCN)CCCN)CC1C[C@H]3O (stereo partly drawn) [(44), 3β-(tris(3-aminopropyl)amine)-N,N-diethylchenodeoxycholamide] | 8 µg/mL | 2 µg/mL (≈ 3.24 µM) | 2 µg/mL | 15 µg/mL (≈ 24.3 µM) | 2 µg/mL (≈ 3.24 µM) | 4 µg/mL | 60 µg/mL (≈ 97.1 µM) | 4 µg/mL (≈ 6.47 µM) | 75 µg/mL (≈ 121 µM) | 75 µg/mL (≈ 121 µM) | 60 µg/mL (≈ 97.1 µM) | 0.5 µg/mL (≈ 0.809 µM) | 30 µg/mL (≈ 48.5 µM) | 
 | CC(C)NC(=O)CC[C@@H](C)[C@H]1CCC2C3C(CC[C@@]21C)[C@@]1(C)CC[C@H](NCCCNCCCCN)CC1C[C@H]3O (stereo partly drawn) [(52), 3β-spermidino-N-isopropylchenodeoxycholamide] |  | 7 µg/mL (≈ 12.5 µM) | 3.5 µg/mL | 112 µg/mL (≈ 200 µM) | 2 µg/mL (≈ 3.57 µM) |  | 56 µg/mL (≈ 99.8 µM) | 4 µg/mL (≈ 7.13 µM) | 80 µg/mL (≈ 143 µM) | 48 µg/mL (≈ 85.6 µM) | 112 µg/mL (≈ 200 µM) | 4 µg/mL (≈ 7.13 µM) | 28 µg/mL (≈ 49.9 µM) | 14 µg/mL (≈ 25 µM)
 | CC(C)NC(=O)CC[C@@H](C)[C@H]1CCC2C3CCC4C[C@@H](NCCCNCCCNCCCN)CC[C@]4(C)C3C[C@H](O)[C@@]21C (stereo partly drawn) [Compound (1), 3β-norspermino-N-isopropyldeoxycholamide] |  | 4 µg/mL (≈ 6.62 µM) | 1 µg/mL | 8 µg/mL (≈ 13.2 µM) | 0.5 µg/mL (≈ 0.828 µM) |  | 8 µg/mL (≈ 13.2 µM) | 2 µg/mL (≈ 3.31 µM) | 42 µg/mL (≈ 69.5 µM) | 33 µg/mL (≈ 54.6 µM) | 8 µg/mL (≈ 13.2 µM) | 0.5 µg/mL (≈ 0.828 µM) | 8 µg/mL (≈ 13.2 µM) | 8 µg/mL (≈ 13.2 µM)
 | CC(C)NC(=O)CC[C@@H](C)[C@H]1CCC2C3C(CC[C@@]21C)[C@@]1(C)CC[C@H](NCCCNCCCCNCCCN)CC1C[C@H]3O (stereo partly drawn) [Compound (32), 3β-spermino-N-isopropylchenodeoxycholamide] |  | 7 µg/mL (≈ 11.3 µM) | 1 µg/mL | 15 µg/mL (≈ 24.3 µM) | 0.5 µg/mL (≈ 0.809 µM) |  | 30 µg/mL (≈ 48.5 µM) | 2 µg/mL (≈ 3.24 µM) | 34 µg/mL (≈ 55 µM) | 13 µg/mL (≈ 21 µM) | 15 µg/mL (≈ 24.3 µM) | 2 µg/mL (≈ 3.24 µM) | 31 µg/mL (≈ 50.2 µM) | 7 µg/mL (≈ 11.3 µM)
 | CCN(CC)C(=O)CC[C@@H](C)[C@H]1CCC2C3C(CC[C@@]21C)[C@@]1(C)CC[C@H](NCCCNCCCCNCCCN)CC1C[C@H]3O (stereo partly drawn) [Compound (34), 3β-spermino-N,N-diethylchenodeoxycholamide] |  | 4 µg/mL (≈ 6.33 µM) | 2 µg/mL | 8 µg/mL (≈ 12.7 µM) | 2 µg/mL (≈ 3.16 µM) |  | 16 µg/mL (≈ 25.3 µM) | 4 µg/mL (≈ 6.33 µM) | 50 µg/mL (≈ 79.1 µM) | 50 µg/mL (≈ 79.1 µM) | 16 µg/mL (≈ 25.3 µM) | 0.5 µg/mL (≈ 0.791 µM) | 8 µg/mL (≈ 12.7 µM) | 2 µg/mL (≈ 3.16 µM)
40 µg/mL | C[C@H]1c2cccc(O)c2C(=O)C2=C(O)[C@]3(O)C(=O)C(C(N)=O)=C(O)[C@@H](N(C)C)[C@@H]3[C@@H](O)[C@@H]21 [doxycycline] |  |  |  |  |  |  |  |  |  |  |  |  |  | 
